The nature of data set [1]: Binding affinity to [13C6]-methyl alpha-D-mannopyranoside by 2-DDARR in presence of Ca2+ relative to TMS.
Data set [2] in a line: Solubility of the compound in phosphate buffered saline at pH 7.4. Format: physicochemical.
Data set [3] in a line: Binding affinity to methyl alpha-D-mannopyranoside at -135 ppm by Solid-state CP/MAS 113Cd NMR spectroscopy.
Data set [4] is described as follows: Binding affinity to methyl alpha-D-mannopyranoside at -129 ppm by Solid-state CP/MAS 113Cd NMR spectroscopy.

Values after ≈ are worked out from the molar mass of the structure shown. Active and inactive are the calls of the source. No cut-off for these calls is given here.

As to `CN[C@@H]1[C@H](O[C@@H]2OC[C@@H](O)[C@H](O)[C@H]2O)[C@@H](O)[C@H](O[C@H]2c3cc(C)c(C(=O)N[C@H](C)C(=O)O)c(O)c3-c3c(cc4c(c3O)C(=O)c3cc(OC)cc(O)c3C4=O)[C@@H]2O)O[C@@H]1C` [PRADIMICIN A], the result in data set [1] and in data set [3] was Active. Further, the concentration in solution in data set [2] (solubility) was 20 µg/mL (≈ 23.8 µM).
`CN[C@@H]1[C@H](O[C@@H]2OC[C@@H](O)[C@H](O)[C@H]2O)[C@@H](O)[C@H](O[C@H]2c3cc(C)c(C(=O)N[C@H](CO)C(=O)O)c(O)c3-c3c(cc4c(c3O)C(=O)c3cc(OC)cc(O)c3C4=O)[C@@H]2O)O[C@@H]1C`: in data set [2], the concentration in solution (solubility) came to 260 µg/mL (≈ 303 µM).
For `COc1cc(O)c2c(c1)C(=O)c1c(cc3c(c1O)-c1c(cc(C)c(C(=O)N[C@H](CO)C(=O)O)c1O)[C@H](O[C@@H]1O[C@H](C)[C@H](N(C)C)[C@H](O[C@@H]4OC[C@@H](O)[C@H](O)[C@H]4O)[C@H]1O)[C@H]3O)C2=O`, the result in data set [1] and in data set [4] was Active. The same molecule returned a solubility in data set [2] greater than 20000 µg/mL.

The values above are taken from ChEMBL document CHEMBL1944631, “Solid-state NMR analysis of calcium and d-mannose binding of BMY-28864, a water-soluble analogue of pradimicin A” (Bioorg Med Chem Lett, 2012).
